From patent publication US20240391871A1, “SUBSTITUTED HYDROXYMETHYL PYRROLIDINES AND MEDICAL USES THEREOF” (ATROGI AB, priority 2021, published 2024) come the findings set out here.

Where a name gives a salt, the structure may show the parent alone. Bounds are passed on as bounds.

Test [1] has as its system Intracellular cAMP levels. Kind of test: Measurement of intracellular cAMP levels in differentiated L6 cells. The class given is cell-based. The following applies: Rattus norvegicus, L6, 0.25 h, compound 1×10^−5 M, 15 min, read-out: Biological example 2: intracellular cAMP levels, activity compared to that of isoproterenol. As for the experimental part:
(§1) L6-myoblasts were grown in Dulbecco's Modified Eagle's Medium (DMEM) containing 1 g/L glucose supplemented with 10% fetal bovine serum, 2 mM L-Glutamine, 50 U/mL penicillin, 50 μg/mL streptomycin and 10 mM HEPES. Cells were plated at 1×10^5 cells per mL in 24-well plates. After reaching 90% confluence the cells were grown in medium containing 2% FBS for 7 days where upon cells differentiated into myotubes.
Differentiated cells were serum-starved overnight and stimulated with an agonist, final concentration 1×10^−5 M, for 15 min in stimulation buffer (HBSS supplemented with 1% BSA, 5 mM HEPES and 1 mM IBMX, pH 7.4). The medium was aspirated and 100 μL of 95% EtOH was added to each well of the 24-well plate and cells were kept at −20° C. overnight. The EtOH was allowed to evaporate and 500 μL of lysis buffer (1% BSA, 5 mM HEPES and 0.3% Tween-20, pH 7.4) was added to each well. The plate was kept at −80° C. for 30 min and then at −20° C. until the day of detection when the samples were thawed. Intracellular cAMP levels were detected using an alpha screen cAMP kit (6760635D from Perkin Elmer). The activity for each compound is compared to that of isoproterenol.

Test [2] concerns L6-myotubes. Kind of test: Glucose uptake (3H-2-deoxyglucose) in differentiated L6-myotubes. The class given is cell-based. The following applies: compound 1×10^−5 M; for Emax at 10 µM: read-out: Biological example 1: glucose uptake, activity compared to that of isoproterenol. As for the experimental part: as §1
Differentiated L6-myotubes were serum-starved overnight in medium containing 0.5% fatty-acid free BSA and stimulated with an agonist, with a final concentration of 1×10^−5 M. After 1 h 40 min the cells were washed with warm glucose free medium or PBS twice and another portion of agonist was added to the glucose free medium. After 20 min the cells were exposed to 50 nM ^3H-2-deoxyglucose for 10 min before washed with ice cold glucose free medium or PBS three times and lysed with 0.2 M NaOH, 400 μL/well, for 1 h at 60° C. The cell lysate was mixed with 4 mL scintillation buffer (Emulsifier Safe, Perkin Elmer) and the radioactivity was detected in a β-counter (Tri-Carb 4810TR, Perkin Elmer). The activity for each compound is compared to that of isoproterenol.

`O[C@@H](c1cccc(F)c1)[C@H]1CC[C@@H](Cc2ccc(Cl)cc2)N1` [Example 26, (S)-((2R,5S)-5-(4-Chlorobenzyl)pyrrolidin-2-yl)(3-fluorophenyl)methanol hydrochloride]: the Emax at 10 µM in test [1] was under 25%; in test [2] it was 50 to 75%.

Consider `O[C@H](c1cccc(F)c1)[C@H]1CC[C@H](Cc2ccc(Cl)cc2)N1` [Example 27, (R)-((2R,5R)-5-(4-Chlorobenzyl)pyrrolidin-2-yl)(3-fluorophenyl)methanol hydrochloride], for which the Emax at 10 µM was under 25% in test [1] and over 75% in test [2].

For `O[C@@H](c1cccc(F)c1)[C@H]1CC[C@H](Cc2ccc(Cl)cc2)N1` [Example 28, (S)-((2R,5R)-5-(4-Chlorobenzyl)pyrrolidin-2-yl)(3-fluorophenyl)methanol hydrochloride], the Emax at 10 µM in test [1] is under 25%; in test [2], 50 to 75%.

As for `O[C@H](c1cncc(F)c1)[C@H]1CC[C@@H](Cc2ccc(Cl)cc2)N1` [Example 29, (R)-((2R,5S)-5-(4-Chlorobenzyl)pyrrolidin-2-yl)(5-fluoropyridin-3-yl) -methanol dihydrochloride], the Emax at 10 µM in test [1] was under 25%; in test [2] it was over 75%.

Turning to `O[C@@H](c1cncc(F)c1)[C@H]1CC[C@@H](Cc2ccc(Cl)cc2)N1` [Example 30, (S)-(2R,5S)-5-(4-Chlorobenzyl)pyrrolidin-2-yl)(5-fluoropyridin-3-yl) -methanol dihydrochloride], the Emax at 10 µM in test [1] is under 25%; in test [2] it was 50 to 75%.

`O[C@H](c1cncc(F)c1)[C@H]1CC[C@H](Cc2ccc(Cl)cc2)N1` [Example 31, (R)-((2R,5R)-5-(4-Chlorobenzyl)pyrrolidin-2-yl)(5-fluoropyridin-3-yl) -methanol dihydrochloride]: the Emax at 10 µM was under 25% in test [1] and over 75% in test [2].

As to `O[C@@H](c1cncc(F)c1)[C@H]1CC[C@H](Cc2ccc(Cl)cc2)N1` [Example 32, (S)-(2R,5R)-5-(4-Chlorobenzyl)pyrrolidin-2-yl)(5-fluoropyridin-3-yl) -methanol dihydrochloride], the Emax at 10 µM in test [1] is under 25%; in test [2], over 75%.

As to `CC(=O)N(Cc1ccccc1)[C@H]1CC[C@@H](C[C@@H]2CC[C@H]([C@H](O)c3cccc(F)c3)N2)CC1` [Example 33, N-Benzyl-N-((1R,4s)-4-(((25,5R)-5-((R)-(3-fluorophenyl)(hydroxy)methyl) -pyrrolidin-2-yl)methyl)cyclohexyl)acetamide hydrochloride], the values for the Emax at 10 µM in test [1] and in test [2] were under 25% and 50 to 75%, respectively.

For `CC(=O)N[C@H]1CC[C@H](C[C@@H]2CC[C@H]([C@H](O)c3cccc(F)c3)N2)CC1.Cl` [Example 34, N-((1S,4r)-4-(((2S,5R)-5-((R)-(3-Fluorophenyl)(hydroxy)methyl)pyrrolidin-2-yl)methyl)cyclohexyl)acetamide hydrochloride], the Emax at 10 µM in test [1] is under 25%. For the same compound, the “Biological example 1: glucose uptake, activity compared to that of isoproterenol” value in test [2] (hydrochloride) is given as “+++ (more than 75% of that of isoproterenol)”.

`CC(=O)N(Cc1ccccc1)[C@H]1CC[C@@H](C[C@@H]2CC[C@H]([C@@H](O)c3cccc(F)c3)N2)CC1` [Example 35, N-Benzyl-N-((1R,4s)-4-(((2S,5R)-5-((S)-(3-fluorophenyl)(hydroxy) -methyl)pyrrolidin-2-yl)methyl)cyclohexyl)acetamide hydrochloride]: the Emax at 10 µM in test [1] is under 25%; in test [2] it was 25 to 50%.

Consider `CC(=O)N[C@H]1CC[C@@H](C[C@@H]2CC[C@H]([C@@H](O)c3cccc(F)c3)N2)CC1` [Example 36, N-((1R,4s)-4-(((2S,5R)-5-((S)-(3-Fluorophenyl)(hydroxy)methyl)pyrrolidin-2-yl)methyl)cyclohexyl)acetamide], for which the Emax at 10 µM was under 25% in test [1] and 50 to 75% in test [2].
